Reference: ChEMBL document CHEMBL1949573, “Isoform-selective thiazolo[5,4-b]pyridine S1P1 agonists possessing acyclic amino carboxylate head-groups” (Bioorg Med Chem Lett, 2012)
≈ marks a conversion by molar mass, not a printed value. Calls of active or inactive are those of the source. The calls are words filed in the database; no cut-off is given here.

Experiments:
[1] = target: T1, Sphingosine 1-phosphate receptor 1 (Homo sapiens, UniProt P21453); test: Agonist activity at eGFP-tagged human S1P1 receptor expressed in U2OS cells assessed as receptor internalization after 1 hr by Hoechst dye-based microscopic analysis; format: functional, cell-based
T1 sequence (P21453 whole entry): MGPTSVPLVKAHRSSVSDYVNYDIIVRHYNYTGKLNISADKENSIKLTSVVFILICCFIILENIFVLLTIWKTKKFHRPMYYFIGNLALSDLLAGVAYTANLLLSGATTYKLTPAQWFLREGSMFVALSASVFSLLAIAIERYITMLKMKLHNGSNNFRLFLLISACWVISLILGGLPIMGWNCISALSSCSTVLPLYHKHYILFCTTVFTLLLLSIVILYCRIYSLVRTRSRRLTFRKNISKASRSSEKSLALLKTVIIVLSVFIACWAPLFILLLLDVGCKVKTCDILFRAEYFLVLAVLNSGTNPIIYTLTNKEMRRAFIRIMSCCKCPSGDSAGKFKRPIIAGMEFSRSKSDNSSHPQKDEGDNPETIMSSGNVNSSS

[2] = target: T1, Sphingosine 1-phosphate receptor 1; test: Agonist activity at eGFP-tagged human S1P1 receptor expressed in U2OS cells assessed as receptor internalization after 1 hr by Hoechst dye-based microscopic analysis relative to 1 uM 1-(4-(6-benzylbenzofuran-2-yl)-3-fluorobenzyl)azetidine-3-carboxylic acid; format: functional, cell-based
[3] = target: T2, Sphingosine 1-phosphate receptor 3 (Homo sapiens, UniProt Q99500); test: Agonist activity at human S1P3 receptor expressed in CHO cells coexpressing chimeric Gq/i5 G-protein assessed as Ca2+ release by FLIPR assay; format: functional, cell-based
T2 sequence (Q99500 whole entry): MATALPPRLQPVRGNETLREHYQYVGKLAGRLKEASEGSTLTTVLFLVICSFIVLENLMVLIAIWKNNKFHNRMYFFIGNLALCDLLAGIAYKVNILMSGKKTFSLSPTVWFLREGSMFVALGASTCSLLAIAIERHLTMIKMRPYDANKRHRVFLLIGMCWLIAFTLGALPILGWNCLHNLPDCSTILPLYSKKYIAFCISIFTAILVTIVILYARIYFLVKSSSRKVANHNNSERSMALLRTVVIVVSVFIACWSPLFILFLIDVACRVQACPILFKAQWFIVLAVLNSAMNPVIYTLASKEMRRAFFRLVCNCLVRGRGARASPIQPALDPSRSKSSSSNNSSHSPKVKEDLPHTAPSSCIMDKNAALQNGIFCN

[4] = test system: Rattus norvegicus; test: Immunomodulatory activity in Lewis rat assessed as peripheral lymphocyte reduction at 1 mg/kg, po after 24 hrs; format: functional; parameters: scale not given: the % may be the effect or the level left
[5] = test system: Plasma; test: Plasma concentration in Lewis rat at 1 mg/kg, po; format: ADME, organism-based; parameters: dose 1 mg/kg, route oral; details: in vivo
[6] = test system: Rattus norvegicus; test: Immunomodulatory activity in Lewis rat assessed as peripheral lymphocyte reduction at 0.1 mg/kg, po after 24 hrs relative to control; format: functional
[7] = test system: Rattus norvegicus; test: Immunomodulatory activity in Lewis rat assessed as peripheral lymphocyte reduction at 0.3 mg/kg, po after 24 hrs relative to control; format: functional; parameters: scale not given: the % may be the effect or the level left
[8] = Clearance in Sprague-Dawley rat at 1 mg/kg, iv and 3 mg/kg, po; format: ADME, organism-based; details: in vivo
[9] = Volume of distribution at steady state in Sprague-Dawley rat at 1 mg/kg, iv and 3 mg/kg, po; format: ADME, organism-based; details: in vivo, read-out: Vdss
[10] = Mean residence time in Sprague-Dawley rat at 1 mg/kg, iv and 3 mg/kg, po; format: ADME, organism-based; details: in vivo
[11] = Oral bioavailability in Sprague-Dawley rat at 3 mg/kg; format: ADME, organism-based; details: in vivo
[12] = test system: rat MDR1; test: Permeability from apical to basolateral side in pig LLC-PK1 cells expressing rat MDR1; format: ADME, cell-based, Sus scrofa; details: read-out: permeability
[13] = Solubility of the compound in 0.01 N HCl; format: physicochemical; details: buffer
[14] = Solubility of the compound in phosphate buffer saline; format: physicochemical
[15] = Solubility of the compound in simulated intestinal fluid; format: physicochemical; details: simulated gi fluid
[16] = test system: rat MDR1; test: Efflux ratio of permeability across pig LLC-PK1 cells expressing rat MDR1; format: ADME, cell-based, Sus scrofa
[17] = Fraction unbound in rat plasma; format: ADME, cell-free
[18] = Fraction unbound in human plasma; format: ADME, cell-free
[19] = target: T3, Cytochrome P450 3A4 (Homo sapiens, UniProt P08684); test: Induction of CYP3A4; format: ADME
T3 sequence (P08684 whole entry): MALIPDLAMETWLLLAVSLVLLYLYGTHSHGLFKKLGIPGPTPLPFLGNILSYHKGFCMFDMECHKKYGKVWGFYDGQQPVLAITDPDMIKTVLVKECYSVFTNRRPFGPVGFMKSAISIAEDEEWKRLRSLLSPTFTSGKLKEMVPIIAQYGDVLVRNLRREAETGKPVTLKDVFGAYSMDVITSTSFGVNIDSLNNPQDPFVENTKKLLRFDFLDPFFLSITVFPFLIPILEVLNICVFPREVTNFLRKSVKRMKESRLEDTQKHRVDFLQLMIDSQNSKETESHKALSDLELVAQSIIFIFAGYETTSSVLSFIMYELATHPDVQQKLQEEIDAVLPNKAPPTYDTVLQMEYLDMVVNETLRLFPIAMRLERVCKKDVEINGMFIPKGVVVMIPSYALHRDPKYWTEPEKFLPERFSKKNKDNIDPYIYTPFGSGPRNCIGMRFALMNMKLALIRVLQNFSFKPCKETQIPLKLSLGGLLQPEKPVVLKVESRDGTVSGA

[20] = target: T3, Cytochrome P450 3A4; test: Inhibition of CYP3A4; format: ADME
[21] = target: T4, Cytochrome P450 2D6 (Homo sapiens, UniProt P10635); test: Induction of CYP2D6; format: ADME
T4 sequence (P10635 whole entry): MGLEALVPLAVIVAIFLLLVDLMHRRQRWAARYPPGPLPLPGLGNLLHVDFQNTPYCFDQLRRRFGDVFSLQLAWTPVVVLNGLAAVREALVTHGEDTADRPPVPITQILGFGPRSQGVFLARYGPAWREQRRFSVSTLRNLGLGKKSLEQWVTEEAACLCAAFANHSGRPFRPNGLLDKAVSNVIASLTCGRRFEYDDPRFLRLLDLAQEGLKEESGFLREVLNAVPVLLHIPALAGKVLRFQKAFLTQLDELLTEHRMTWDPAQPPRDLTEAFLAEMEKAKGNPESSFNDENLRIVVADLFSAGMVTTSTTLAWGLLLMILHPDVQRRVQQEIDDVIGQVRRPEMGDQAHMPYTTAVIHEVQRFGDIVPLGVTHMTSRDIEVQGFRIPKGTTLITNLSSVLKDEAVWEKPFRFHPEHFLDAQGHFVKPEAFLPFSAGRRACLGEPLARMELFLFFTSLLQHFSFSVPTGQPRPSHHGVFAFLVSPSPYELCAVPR

[22] = target: T4, Cytochrome P450 2D6; test: Inhibition of CYP2D6; format: ADME
[23] = target: T5, Voltage-gated inwardly rectifying potassium channel KCNH2 (Homo sapiens, UniProt Q12809); test: Binding affinity to human Erg
T5 sequence (Q12809 whole entry): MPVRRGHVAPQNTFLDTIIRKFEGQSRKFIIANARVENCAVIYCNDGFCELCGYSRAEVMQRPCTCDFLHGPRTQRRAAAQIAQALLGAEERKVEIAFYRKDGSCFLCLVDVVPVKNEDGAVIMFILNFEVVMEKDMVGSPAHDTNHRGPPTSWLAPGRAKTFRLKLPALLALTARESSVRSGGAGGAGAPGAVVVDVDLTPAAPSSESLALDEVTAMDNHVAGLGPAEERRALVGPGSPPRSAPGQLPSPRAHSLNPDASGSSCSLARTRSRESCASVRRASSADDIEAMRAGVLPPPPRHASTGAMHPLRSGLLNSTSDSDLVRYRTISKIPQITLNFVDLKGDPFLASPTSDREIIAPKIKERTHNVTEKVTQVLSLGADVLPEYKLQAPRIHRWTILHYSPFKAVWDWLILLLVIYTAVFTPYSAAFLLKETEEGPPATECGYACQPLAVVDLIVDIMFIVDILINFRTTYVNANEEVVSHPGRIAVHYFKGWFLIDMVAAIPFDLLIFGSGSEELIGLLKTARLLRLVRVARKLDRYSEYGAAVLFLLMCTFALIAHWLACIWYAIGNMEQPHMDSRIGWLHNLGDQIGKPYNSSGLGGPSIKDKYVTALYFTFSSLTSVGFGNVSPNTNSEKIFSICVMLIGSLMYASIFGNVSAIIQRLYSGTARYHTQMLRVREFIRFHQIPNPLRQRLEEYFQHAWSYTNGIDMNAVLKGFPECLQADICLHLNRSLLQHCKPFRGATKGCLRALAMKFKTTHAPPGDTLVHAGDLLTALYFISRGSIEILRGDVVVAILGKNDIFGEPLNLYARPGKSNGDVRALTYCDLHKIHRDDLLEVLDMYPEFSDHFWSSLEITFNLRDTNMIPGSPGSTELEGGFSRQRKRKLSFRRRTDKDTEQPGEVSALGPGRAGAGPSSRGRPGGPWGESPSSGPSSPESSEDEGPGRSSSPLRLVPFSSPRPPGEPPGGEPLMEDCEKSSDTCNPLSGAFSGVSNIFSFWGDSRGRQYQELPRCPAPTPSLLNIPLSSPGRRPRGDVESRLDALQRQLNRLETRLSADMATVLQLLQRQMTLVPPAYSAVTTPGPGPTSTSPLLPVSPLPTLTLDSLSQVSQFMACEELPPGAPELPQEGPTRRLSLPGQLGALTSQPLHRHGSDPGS

[24] = target: T5, Voltage-gated inwardly rectifying potassium channel KCNH2; test: Inhibition of human Erg by electrophysiology assay
[25] = test system: Rattus norvegicus; test: Immunomodulatory activity in Lewis rat assessed as peripheral lymphocyte reduction at 1 mg/kg, po after 24 hrs relative to control; format: functional; parameters: scale not given: the % may be the effect or the level left
[26] = target: T2, Sphingosine 1-phosphate receptor 3; test: Agonist activity at human S1P3 receptor expressed in CHO cells coexpressing chimeric Gq/i5 G-protein assessed as Ca2+ release by FLIPR assay relative to 0.2 uM S1P; format: functional, cell-based
[27] = test system: Plasma; test: Plasma concentration in Lewis rat at 0.1 mg/kg, po; format: ADME, organism-based; parameters: dose 0.1 mg/kg, route oral; details: in vivo

| SMILES | EC50 [1] | Efficacy [2] | EC50 [3] | Cp [5] | Activity [4] | further results |
| --- | --- | --- | --- | --- | --- | --- |
| Nc1ccc(-c2nc3ccc(C4(c5ccccc5)CC4)nc3s2)c(F)c1 | 123 nM | 92% | > 25000 nM |  |  |  |
| O=C(O)CCCc1ccc(-c2nc3ccc(C4(c5ccccc5)CC4)nc3s2)c(F)c1 | 62 nM | 100% | > 25000 nM |  |  |  |
| O=C(O)c1ccc(-c2nc3ccc(C4(c5ccccc5)CC4)nc3s2)c(F)c1 | 2820 nM | 105% | > 25000 nM |  |  |  |
| O=C(O)CCNCc1ccc(-c2nc3ccc(C4(c5ccccc5)CC4)nc3s2)c(F)c1 | 3 nM | 96% | > 25000 nM | 12 ng/mL | 27% |  |
| O=C(O)CCc1ccc(-c2nc3ccc(C4(c5ccccc5)CC4)nc3s2)c(F)c1 |  | 81% | > 25000 nM |  |  |  |
| O=C(O)CCCCc1ccc(-c2nc3ccc(C4(c5ccccc5)CC4)nc3s2)c(F)c1 | 2410 nM | 103% | > 25000 nM |  |  |  |
| O=C(O)C1CN(Cc2ccc(-c3nc4ccc(C5(c6ccccc6)CC5)nc4s3)c(F)c2)C1 |  |  |  | 116 ng/mL | 71% | Efficacy [26]: 26%; Activity [6]: 65%; Papp A→B [12]: 14.6 ×10⁻⁶ cm/s; solubility [13]: 3 ng/mL (≈ 0.00653 µM); solubility [14]: 7 ng/mL (≈ 0.0152 µM); solubility [15]: 65 ng/mL (≈ 0.141 µM); Cp [27]: 10 ng/mL |
| NCCCc1ccc(-c2nc3ccc(C4(c5ccccc5)CC4)nc3s2)c(F)c1 | 8 nM | 121% | > 2500 nM |  |  |  |
| N[C@@H](CC(=O)Nc1ccc(-c2nc3ccc(C4(c5ccccc5)CC4)nc3s2)c(F)c1)C(=O)O | 2 nM | 102% | > 2500 nM | 8 ng/mL | 4% |  |
| O=C(O)CCNc1ccc(-c2nc3ccc(C4(c5ccccc5)CC4)nc3s2)c(F)c1 | 42 nM | 94% | > 2500 nM |  |  |  |
| C[C@](N)(CCc1ccc(-c2nc3ccc(C4(c5ccccc5)CC4)nc3s2)c(F)c1)C(=O)O | 3 nM | 93% | > 2500 nM | 6 ng/mL | 15% |  |
| NCCc1ccc(-c2nc3ccc(C4(c5ccccc5)CC4)nc3s2)c(F)c1 | 478 nM | 155% | > 25000 nM |  |  |  |
| Fc1ccccc1-c1nc2ccc(C3(c4ccccc4)CC3)nc2s1 | 45 nM | 98% | > 25000 nM |  |  |  |
| N[C@H](CCc1ccc(-c2nc3ccc(C4(c5ccccc5)CC4)nc3s2)c(F)c1)C(=O)O | 0.3 nM | 128% | > 2500 nM | 5 ng/mL | 55% |  |
| N[C@@H](CCc1ccc(-c2nc3ccc(C4(c5ccccc5)CC4)nc3s2)c(F)c1)C(=O)O | 0.5 nM | 115% | > 2500 nM | 2 ng/mL | 22% |  |
| NCc1ccc(-c2nc3ccc(C4(c5ccccc5)CC4)nc3s2)c(F)c1 | 15 nM | 113% | > 2500 nM |  |  |  |
| CN(CCC(=O)O)Cc1ccc(-c2nc3ccc(C4(c5ccccc5)CC4)nc3s2)c(F)c1 | 196 nM | 153% | > 25000 nM |  |  |  |

Continued, in another order:

| EC50 [1] | Efficacy [2] | EC50 [3] | Cp [5] | SMILES | Activity [4] | further results |
| --- | --- | --- | --- | --- | --- | --- |
| 179 nM | 128% | > 2500 nM |  | O=C(O)CCCNCc1ccc(-c2nc3ccc(C4(c5ccccc5)CC4)nc3s2)c(F)c1 |  |  |
| 0.2 nM | 114% | > 2500 nM | 10 ng/mL | C[C@@](N)(CCc1ccc(-c2nc3ccc(C4(c5ccccc5)CC4)nc3s2)c(F)c1)C(=O)O | 71% | Activity [6]: inactive; Activity [7]: 29%; clearance [8]: 6 mL/min/kg; Vd [9]: 4.1 L/kg; MRT [10]: 11.4 h; bioavailability [11]: 16%; Papp A→B [12]: 4 ×10⁻⁶ cm/s; solubility [13]: 6 ng/mL (≈ 0.013 µM); solubility [14]: < 1 ng/mL; solubility [15]: 108 ng/mL (≈ 0.234 µM); efflux ratio [16]: 1.8; fraction unbound [17]: 0.039; fraction unbound [18]: 0.037; Activity [19]: Not Active; inhibition (INH) [20]: Not Active; Activity [21]: Not Active; inhibition (INH) [22]: Not Active; Activity [23]: > 30 µM; INH [24]: > 10 µM; Activity [25]: 56% |
|  | 100% | 834 nM | 2 ng/mL | N[C@H](CC(=O)O)C(=O)Nc1ccc(-c2nc3ccc(C4(c5ccccc5)CC4)nc3s2)c(F)c1 | 0% | Efficacy [26]: 31% |
| 2 nM | 110% | > 2500 nM | 4 ng/mL | N[C@H](CC(=O)Nc1ccc(-c2nc3ccc(C4(c5ccccc5)CC4)nc3s2)c(F)c1)C(=O)O | 0% |  |
| 36 nM | 113% | 7120 nM |  | O=C(O)CCCNc1ccc(-c2nc3ccc(C4(c5ccccc5)CC4)nc3s2)c(F)c1 |  | Efficacy [26]: 18% |
| 0.5 nM | 134% | 1130 nM | 1 ng/mL | N[C@@H](CC(=O)O)C(=O)Nc1ccc(-c2nc3ccc(C4(c5ccccc5)CC4)nc3s2)c(F)c1 | 0% | Efficacy [26]: 35% |
| 2 nM | 102% | 1440 nM | 1 ng/mL | O=C(O)CNCCc1ccc(-c2nc3ccc(C4(c5ccccc5)CC4)nc3s2)c(F)c1 | 15% | Efficacy [26]: 11% |
| 19 nM | 80% | 5560 nM |  | O=C(O)CCC(=O)Nc1ccc(-c2nc3ccc(C4(c5ccccc5)CC4)nc3s2)c(F)c1 |  | Efficacy [26]: 39% |
| 3 nM | 103% | 1560 nM | 7 ng/mL | O=C(O)CNCc1ccc(-c2nc3ccc(C4(c5ccccc5)CC4)nc3s2)c(F)c1 | 37% | Efficacy [26]: 17% |
